Test results reported in US20140296216A1, “PYRIMIDO[4,5-D]PYRIMIDINYL COMPOUNDS, PHARMACEUTICAL COMPOSITIONS AND USES THEREOF” (GUANGZHOU INSTITUTE OF BIOMEDICINE AND HEALTH, CHINESE …, priority 2011, published 2014).

How the values were obtained:
[1] = test system: A431 (Human epidermal carcinoma, EGFR high expression); assay: Cell proliferation by MTT, A431; assay type: cell-based; conditions: A-431, read-out: A431 50% inhibitory concentration (IC50), 72 h
[2] = test system: NCI-H820 (lung cancer cells); assay: Cell proliferation by MTT, NCI-H820; assay type: cell-based; conditions: NCI-H820, read-out: NCI-H820 50% inhibitory concentration (IC50), 72 h
EGFRWT = EGFRWT (Homo sapiens, UniProt P00533); assay: In vitro enzymatic activity assay (Z'-LYTE), wild type EGFR; assay type: biochemical; conditions: Z'-LYTE FRET peptide assay; read-out: EGFRWT kinase activity (IC50)
Chain of EGFRWT (P00533 25-1210): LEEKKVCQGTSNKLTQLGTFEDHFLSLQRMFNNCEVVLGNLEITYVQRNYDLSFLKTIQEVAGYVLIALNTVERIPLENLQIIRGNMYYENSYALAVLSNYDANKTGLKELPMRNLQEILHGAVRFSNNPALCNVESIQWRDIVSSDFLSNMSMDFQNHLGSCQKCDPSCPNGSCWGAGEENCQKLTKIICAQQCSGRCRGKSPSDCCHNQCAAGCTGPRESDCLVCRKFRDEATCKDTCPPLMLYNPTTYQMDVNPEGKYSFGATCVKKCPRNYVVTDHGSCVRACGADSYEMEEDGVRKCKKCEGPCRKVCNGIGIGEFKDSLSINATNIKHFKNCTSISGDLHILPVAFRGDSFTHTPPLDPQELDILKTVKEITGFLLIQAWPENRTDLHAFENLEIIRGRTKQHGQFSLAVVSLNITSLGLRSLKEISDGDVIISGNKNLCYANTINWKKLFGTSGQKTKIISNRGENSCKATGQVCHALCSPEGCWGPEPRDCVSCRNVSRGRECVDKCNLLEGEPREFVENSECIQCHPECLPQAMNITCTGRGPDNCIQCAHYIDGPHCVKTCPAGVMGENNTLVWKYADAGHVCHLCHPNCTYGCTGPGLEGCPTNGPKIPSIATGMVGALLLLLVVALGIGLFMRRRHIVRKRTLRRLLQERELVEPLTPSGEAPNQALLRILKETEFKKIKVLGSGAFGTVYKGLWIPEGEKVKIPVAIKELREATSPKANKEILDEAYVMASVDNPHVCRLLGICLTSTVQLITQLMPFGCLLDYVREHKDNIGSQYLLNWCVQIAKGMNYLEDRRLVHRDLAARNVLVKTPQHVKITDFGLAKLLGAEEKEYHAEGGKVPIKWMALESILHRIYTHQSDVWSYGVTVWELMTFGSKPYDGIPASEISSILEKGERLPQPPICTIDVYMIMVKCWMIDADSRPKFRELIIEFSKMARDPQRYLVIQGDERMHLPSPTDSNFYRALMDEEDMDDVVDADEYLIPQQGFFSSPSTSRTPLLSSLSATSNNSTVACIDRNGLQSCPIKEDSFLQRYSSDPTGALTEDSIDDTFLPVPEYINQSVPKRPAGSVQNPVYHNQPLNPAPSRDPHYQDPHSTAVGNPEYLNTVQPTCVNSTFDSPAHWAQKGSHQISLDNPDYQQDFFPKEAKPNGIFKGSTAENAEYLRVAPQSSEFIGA
Excerpt: (§1) In vitro enzymatic activity assay: using Z′-LYTE™ technology (detect fluorescence, coupled-enzyme format, based on the differential sensitivity of phosphorylated and non-phosphorylated peptides to proteolytic cleavage), based on FRET, using Z′ LYTE™ FRET peptide substrate, detect the activity of compounds against enzymatic. […] After one hour, site specific protease which can recognize and cleaves non-phosphorylated FRET-peptide. After another hour, using an excitation wavelength of 400 nm excites, then detect the […] at 445 nm and 520 nm.

EGFRL858R = EGFRL858R (Homo sapiens, UniProt P00533, L858R); assay: In vitro enzymatic activity assay (Z'-LYTE), EGFR L858R; assay type: biochemical; conditions: Z'-LYTE FRET peptide assay; read-out: EGFRL858R kinase activity (IC50)
Chain of EGFRL858R (P00533 25-1210 L858R): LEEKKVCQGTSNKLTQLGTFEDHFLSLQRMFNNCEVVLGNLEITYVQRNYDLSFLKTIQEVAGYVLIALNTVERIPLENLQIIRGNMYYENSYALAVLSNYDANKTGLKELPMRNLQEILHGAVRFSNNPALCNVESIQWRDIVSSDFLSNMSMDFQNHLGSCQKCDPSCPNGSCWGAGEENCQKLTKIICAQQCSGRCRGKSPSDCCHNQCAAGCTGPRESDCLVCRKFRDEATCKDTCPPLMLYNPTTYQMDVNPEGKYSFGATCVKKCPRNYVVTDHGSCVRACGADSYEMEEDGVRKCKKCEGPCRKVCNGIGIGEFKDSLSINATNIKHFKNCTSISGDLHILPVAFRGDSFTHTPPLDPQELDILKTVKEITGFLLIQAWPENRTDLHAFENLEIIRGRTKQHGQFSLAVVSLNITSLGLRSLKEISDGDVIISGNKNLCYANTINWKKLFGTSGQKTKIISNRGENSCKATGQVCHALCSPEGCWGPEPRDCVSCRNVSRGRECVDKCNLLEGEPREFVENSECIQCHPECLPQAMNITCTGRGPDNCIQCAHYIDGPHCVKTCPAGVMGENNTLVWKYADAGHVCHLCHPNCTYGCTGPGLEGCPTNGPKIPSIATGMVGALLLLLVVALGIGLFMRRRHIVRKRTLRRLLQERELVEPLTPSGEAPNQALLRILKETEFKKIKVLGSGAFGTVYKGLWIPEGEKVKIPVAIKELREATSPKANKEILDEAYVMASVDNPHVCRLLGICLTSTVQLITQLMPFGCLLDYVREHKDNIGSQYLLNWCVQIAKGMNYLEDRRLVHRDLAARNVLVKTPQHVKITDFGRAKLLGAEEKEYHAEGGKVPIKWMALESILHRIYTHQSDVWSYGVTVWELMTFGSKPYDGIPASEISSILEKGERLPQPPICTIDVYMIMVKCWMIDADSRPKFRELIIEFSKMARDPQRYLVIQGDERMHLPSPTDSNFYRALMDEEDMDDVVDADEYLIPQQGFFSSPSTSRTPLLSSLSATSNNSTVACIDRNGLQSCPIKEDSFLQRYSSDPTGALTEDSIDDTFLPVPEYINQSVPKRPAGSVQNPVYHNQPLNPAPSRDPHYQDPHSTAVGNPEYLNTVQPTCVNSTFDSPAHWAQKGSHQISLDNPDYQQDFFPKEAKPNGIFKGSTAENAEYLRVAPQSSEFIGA
Excerpt: as §1

EGFRL861Q = EGFRL861Q (Homo sapiens, UniProt P00533, L861Q); assay: In vitro enzymatic activity assay (Z'-LYTE), EGFR L861Q; assay type: biochemical; conditions: Z'-LYTE FRET peptide assay; read-out: EGFRL861Q kinase activity (IC50)
Excerpt: as §1

[3] = test system: H1975 (lung cancer cells, EGFR L858R&T790M); assay: Cell proliferation by MTT, H1975; assay type: cell-based; conditions: Homo sapiens, NCI-H1975, read-out: H1975 50% inhibitory concentration (IC50), 72 h
[4] = test system: HCC827 (lung cancer cells, EGFR E746-A750 deletion); assay: Cell proliferation by MTT, HCC827; assay type: cell-based; conditions: Homo sapiens, HCC827, read-out: HCC827 50% inhibitory concentration (IC50), 72 h
EGFRL858R + T790M = EGFRL858R + T790M (Homo sapiens, UniProt P00533, L858R/T790M); assay: In vitro enzymatic activity assay (Z'-LYTE), EGFR L858R + T790M; assay type: biochemical; conditions: Z'-LYTE FRET peptide assay; read-out: EGFRL858R + T790M kinase activity (IC50)
Chain of EGFRL858R + T790M (P00533 25-1210 T790M/L858R): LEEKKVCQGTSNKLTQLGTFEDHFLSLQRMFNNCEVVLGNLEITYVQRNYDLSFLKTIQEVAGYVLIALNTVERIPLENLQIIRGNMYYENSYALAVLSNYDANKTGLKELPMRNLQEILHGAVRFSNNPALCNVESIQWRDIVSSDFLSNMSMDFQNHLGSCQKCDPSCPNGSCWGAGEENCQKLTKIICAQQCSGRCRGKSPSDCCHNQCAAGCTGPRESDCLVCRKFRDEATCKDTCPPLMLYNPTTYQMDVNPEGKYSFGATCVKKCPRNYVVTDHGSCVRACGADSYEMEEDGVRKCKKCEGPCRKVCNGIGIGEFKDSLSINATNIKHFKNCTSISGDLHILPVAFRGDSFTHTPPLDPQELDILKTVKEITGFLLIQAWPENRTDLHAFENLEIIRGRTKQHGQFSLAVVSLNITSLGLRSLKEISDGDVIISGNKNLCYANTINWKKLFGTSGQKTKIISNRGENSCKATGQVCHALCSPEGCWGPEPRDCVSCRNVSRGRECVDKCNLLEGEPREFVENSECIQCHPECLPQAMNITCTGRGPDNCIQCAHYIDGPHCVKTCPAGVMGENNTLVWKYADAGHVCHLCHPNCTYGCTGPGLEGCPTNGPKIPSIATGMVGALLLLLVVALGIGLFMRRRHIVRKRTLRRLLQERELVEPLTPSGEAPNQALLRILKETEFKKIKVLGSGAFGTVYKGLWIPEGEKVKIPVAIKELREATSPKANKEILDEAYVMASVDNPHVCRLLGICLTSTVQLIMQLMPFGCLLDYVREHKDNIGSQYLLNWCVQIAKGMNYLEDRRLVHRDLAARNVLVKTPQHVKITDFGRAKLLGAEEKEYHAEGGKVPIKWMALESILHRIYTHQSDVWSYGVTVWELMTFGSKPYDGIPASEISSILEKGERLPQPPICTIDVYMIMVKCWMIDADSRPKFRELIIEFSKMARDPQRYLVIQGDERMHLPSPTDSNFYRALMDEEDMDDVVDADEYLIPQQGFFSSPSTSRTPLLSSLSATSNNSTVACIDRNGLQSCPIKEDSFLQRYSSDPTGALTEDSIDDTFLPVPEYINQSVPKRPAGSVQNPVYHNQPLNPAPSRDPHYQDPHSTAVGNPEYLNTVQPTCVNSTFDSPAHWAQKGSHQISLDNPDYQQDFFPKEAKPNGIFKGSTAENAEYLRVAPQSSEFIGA
Excerpt: as §1

EGFR T790M kinase = biological target: T1, EGFR T790M kinase (Homo sapiens, UniProt P00533, T790M); assay: In vitro enzymatic activity assay (Z'-LYTE), EGFR T790M; assay type: biochemical; conditions: Z'-LYTE FRET peptide assay; read-out: EGFRT790M kinase activity (IC50)
T1 construct: purchased invitrogen PV4803
T1 sequence (P00533 25-1210 T790M): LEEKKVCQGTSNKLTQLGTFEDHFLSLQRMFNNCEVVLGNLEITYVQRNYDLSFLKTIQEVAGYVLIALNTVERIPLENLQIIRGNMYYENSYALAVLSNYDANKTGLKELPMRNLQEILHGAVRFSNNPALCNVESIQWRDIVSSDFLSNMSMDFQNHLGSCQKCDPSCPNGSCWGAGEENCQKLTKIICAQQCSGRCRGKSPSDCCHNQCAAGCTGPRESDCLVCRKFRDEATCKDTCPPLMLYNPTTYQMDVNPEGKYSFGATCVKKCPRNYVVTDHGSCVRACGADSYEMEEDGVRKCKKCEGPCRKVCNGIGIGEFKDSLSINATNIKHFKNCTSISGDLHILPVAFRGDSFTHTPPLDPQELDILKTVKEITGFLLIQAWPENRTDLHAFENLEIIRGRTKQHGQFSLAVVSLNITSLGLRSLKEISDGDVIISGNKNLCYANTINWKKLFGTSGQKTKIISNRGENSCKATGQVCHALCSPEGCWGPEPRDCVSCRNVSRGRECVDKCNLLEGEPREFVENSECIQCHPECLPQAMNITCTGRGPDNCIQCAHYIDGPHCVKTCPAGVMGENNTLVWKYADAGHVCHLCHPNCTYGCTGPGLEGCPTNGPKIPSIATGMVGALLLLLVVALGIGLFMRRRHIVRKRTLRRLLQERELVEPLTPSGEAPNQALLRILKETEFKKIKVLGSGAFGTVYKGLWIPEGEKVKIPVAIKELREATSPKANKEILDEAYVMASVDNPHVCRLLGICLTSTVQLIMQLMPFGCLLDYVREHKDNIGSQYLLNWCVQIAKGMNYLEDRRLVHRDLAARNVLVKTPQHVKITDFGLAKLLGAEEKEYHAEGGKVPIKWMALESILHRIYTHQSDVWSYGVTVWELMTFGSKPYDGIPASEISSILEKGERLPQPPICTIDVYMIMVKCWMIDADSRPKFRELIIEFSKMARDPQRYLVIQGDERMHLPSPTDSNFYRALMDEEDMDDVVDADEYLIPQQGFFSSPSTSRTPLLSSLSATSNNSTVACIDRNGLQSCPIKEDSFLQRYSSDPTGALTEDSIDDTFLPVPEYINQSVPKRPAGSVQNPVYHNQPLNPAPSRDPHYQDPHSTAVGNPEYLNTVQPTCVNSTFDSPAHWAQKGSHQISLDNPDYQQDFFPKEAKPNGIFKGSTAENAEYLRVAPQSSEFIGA
Excerpt: as §1

Compound | IC50 [1] [µM] | IC50 [2] [µM] | IC50 (EGFRWT) [nM] | IC50 (EGFRL858R) [nM] | IC50 (EGFRL861Q) [nM] | IC50 [3] [nM] | IC50 [4] [nM] | IC50 (EGFRL858R + T790M) [nM] | IC50 (EGFR T790M kinase) [nM]
C=CC(=O)Nc1cccc(N2C(=O)N(C)Cc3cnc(Nc4ccccc4)nc32)c1 [C-EGF10, N-(3-(3-methyl-2-oxo-7-(phenylamino)-3,4-dihydropyrimido[4,5-d]pyrimidin-1(2H)-yl)phenyl)acrylamide] | 1.58 | > 100 | ≤ 10 | 10 to 100 | 10 to 100 | 213 | 28 | 10 to 100 | ≤ 10
C=CC(=O)Nc1cccc(N2C(=O)N(C)Cc3cnc(Nc4ccc(N5CCSCC5)cc4OC)nc32)c1 [C-EGF09, N-(3-(7-(2-methoxy-4-thiomorpholinophenylamino)-3-methyl-2-oxo-3,4-dihydropyrimido[4,5-d]pyrimidin-1(2H)-yl)phenyl)acrylamide] | 10.7 | > 100 | 10 to 100 | 10 to 100 | ≤ 10 | 379 | 212 | 10 to 100 | 10 to 100
C=CC(=O)Nc1cccc(N2C(=O)N(C)Cc3cnc(Nc4ccc(N5CCCN(C)CC5)cc4OC)nc32)c1 [C-EGF17, N-(3-(7-(2-methoxy-4-(4-methyl-1,4-diazepan-1-yl)phenylamino)-3-methyl-2-oxo-3,4-dihydropyrimido[4,5-d]pyrimidin-1(2H)-yl)phenyl)acrylamide] | 11.1 | > 100 | ≤ 10 | ≤ 10 | ≤ 10 | 710 | 62 | ≤ 10 | ≤ 10
C=CC(=O)Nc1cccc(N2C(=O)N(C)Cc3cnc(Nc4ccc(N5CCC(N(C)C)CC5)cc4OC)nc32)c1 [C-EGF13, N-(3-(7-(4-(4-(dimethylamino)piperidin-1-yl)-2-methoxyphenylamino)-3-methyl-2-oxo-3,4-dihydropyrimido[4,5-d]pyrimidin-1(2H)-yl)phenyl)acrylamide] | > 100 | > 100 | ≤ 10 | ≤ 10 | ≤ 10 | 568 | 198 | ≤ 10 | ≤ 10
C=CC(=O)Nc1cccc(N2C(=O)N(C)Cc3cnc(Nc4ccc(N5CCCCC5)cc4OC)nc32)c1 [C-EGF11, N-(3-(7-(2-methoxy-4-(piperidin-1-yl)phenylamino)-3-methyl-2-oxo-3,4-dihydropyrimido[4,5-d]pyrimidin-1(2H)-yl)phenyl)acrylamide] | 17.7 | > 100 | 10 to 100 | 10 to 100 | ≤ 10 | 2560 | 310 | 10 to 100 | 100 to 1000
C=CC(=O)Nc1cccc(N2C(=O)N(C)Cc3cnc(Nc4ccc(N5CCN(C)CC5)cc4F)nc32)c1 [C-EGF18, N-(3-(7-(2-fluoro-4-(4-methylpiperazin-1-yl)phenylamino)-3-methyl-2-oxo-3,4-dihydropyrimido[4,5-d]pyrimidin-1(2H)-yl)phenyl)acrylamide] | > 100 | 4.85 | 1000 to 10000 | ≥ 10000 | ≥ 1000 | > 100000 | > 100000 | 1000 to 10000 | ≥ 10000
C=CC(=O)Nc1cccc(N2C(=O)N(c3ccc(OC)cc3)Cc3cnc(Nc4ccc(N5CCN(C)CC5)cc4OC)nc32)c1 [C-EGF25, N-(3-(7-(2-methoxy-4-(4-methylpiperazin-1-yl)phenylamino)-3-(4-methoxyphenyl)-2-oxo-3,4-dihydropyrimido[4,5-d]pyrimidin-1(2H)-yl)phenyl)acrylamide] | 1.23 | 54.6 | ≤ 10 | ≤ 10 | ≤ 10 | 501 | 198 | ≤ 10 | ≤ 10
C=CC(=O)Nc1cccc(N2C(=O)N(C)Cc3cnc(Nc4ccc(N5CCC(N6CCN(C)CC6)CC5)cc4OC)nc32)c1 [C-EGF14, N-(3-(7-(2-methoxy-4-(4-(4-methylpiperazin-1-yl)piperidin-1-yl)phenylamino)-3-methyl-2-oxo-3,4-dihydropyrimido[4,5-d]pyrimidin-1(2H)-yl)phenyl)acrylamide] | > 100 | > 100 | ≤ 10 | ≤ 10 | ≤ 10 | 1220 | 188 | 10 to 100 | 10 to 100
C=CC(=O)Nc1cccc(N2C(=O)N(C)Cc3cnc(Nc4ccc(N(C)C)cc4OC)nc32)c1 [C-EGF23, N-(3-(7-(4-(dimethylamino)-2-methoxyphenylamino)-3-methyl-2-oxo-3,4-dihydropyrimido[4,5-d]pyrimidin-1(2H)-yl)phenyl)acrylamide] | 28.2 | > 100 | ≤ 10 | ≤ 10 | ≤ 10 | 3860 | 616 | 10 to 100 | 10 to 100
C=CC(=O)Nc1cccc(N2C(=O)N(C)Cc3cnc(N4CCN(C)CC4)nc32)c1 [C-EGF19, N-(3-(3-methyl-7-(4-methylpiperazin-1-yl)-2-oxo-3,4-dihydropyrimido[4,5-d]pyrimidin-1(2H)-yl)phenyl)acrylamide] | > 100 | 95.7 | ≥ 10000 | ≥ 10000 | 100 to 1000 | 12100 | > 100000 | 1000 to 10000 | ≥ 10000
C=CC(=O)Nc1cccc(N2C(=O)N(C)Cc3cnc(Nc4ccc(N5CCOCC5)cc4OC)nc32)c1 [C-EGF08, N-(3-(7-(2-methoxy-4-morpholinophenylamino)-3-methyl-2-oxo-3,4-dihydropyrimido[4,5-d]pyrimidin-1(2H)-yl)phenyl)acrylamide] | 21.2 | > 100 | 10 to 100 | 10 to 100 | 10 to 100 | 159 | 159 | 10 to 100 | 10 to 100
C=CC(=O)Nc1cccc(N2C(=O)N(C)Cc3cnc(NC)nc32)c1 [C-EGF21, N-(3-(3-methyl-7-(methylamino)-2-oxo-3,4-dihydropyrimido[4,5-d]pyrimidin-1 (2H)-yl)phenyl)acrylamide] | > 100 | > 100 | 100 to 1000 | 100 to 1000 | 1000 to 10000 | 22500 | 11900 | 100 to 1000 | ≥ 10000

Other lines, results leading:

IC50 [1] [µM] | IC50 [2] [µM] | IC50 (EGFRWT) [nM] | IC50 (EGFRL858R) [nM] | IC50 (EGFRL861Q) [nM] | IC50 [3] [nM] | IC50 [4] [nM] | IC50 (EGFRL858R + T790M) [nM] | IC50 (EGFR T790M kinase) [nM] | Compound
3.48 | > 100 | ≤ 10 | ≤ 10 | ≤ 10 | 696 | 256 | ≤ 10 | ≤ 10 | C=CC(=O)Nc1cccc(N2C(=O)N(C)Cc3cnc(Nc4ccc(N5CCOCC5)cc4)nc32)c1 [Compound X007, N-(3-(3-methyl-7-(4-morpholinophenylamino)-2-oxo-3,4-dihydropyrimido[4,5-d]pyrimidin-1(2H)-yl)phenyl)acrylamide]
16.2 | > 100 | ≤ 10 | ≤ 10 | ≤ 10 | 333 | 23 | ≤ 10 | ≤ 10 | C=CC(=O)Nc1cccc(N2C(=O)N(C)Cc3cnc(Nc4ccc(N5CCSCC5)cc4)nc32)c1 [Compound X005, N-(3-(3-methyl-2-oxo-7-(4-thiomorpholinophenylamino)-3,4-dihydropyrimido[4,5-d]pyrimidin-1(2H)-yl)phenyl)acrylamide]
29.9 | > 100 | ≤ 10 | ≤ 10 | ≤ 10 | 1100 | 179 | ≤ 10 | 10 to 100 | C=CC(=O)Nc1cccc(N2C(=O)N(C)Cc3cnc(Nc4ccc(OCCN5CCOCC5)cc4OC)nc32)c1 [Compound X008, N-(3-(7-(2-methoxy-4-(2-morpholinoethoxy)phenylamino)-3-methyl-2-oxo-3,4-dihydropyrimido[4,5-d]pyrimidin-1(2H)-yl)phenyl)acrylamide]
> 100 | > 100 | ≤ 10 | ≤ 10 | ≤ 10 | 261 | 181 | ≤ 10 | ≤ 10 | C=CC(=O)Nc1cccc(N2C(=O)N(C)Cc3cnc(Nc4ccc(N5CCC(N(C)C)CC5)cc4)nc32)c1 [Compound X004, N-(3-(7-(4-(4-(dimethylamino)piperidin-1-yl)phenylamino)-3-methyl-2-oxo-3,4-dihydropyrimido[4,5-d]pyrimidin-1(2H)-yl)phenyl)acrylamide]
